Values quoted from earlier work in PMC7904743, “WIDOCK: a reactive docking protocol for virtual screening of covalent inhibitors” (Journal of Computer-Aided Molecular Design, 2021).
Read-outs that look alike come from different tables or passages of the source.

Tests used:
NUDT7 = settings: protein labeling at 200 μM; experimental actives if % labeling higher than 50%; cited from earlier work
OTUB2 = OTUB2 protein labeling; experimental actives if % labeling higher than 50%; cited from earlier work
[1] = thiol reactivity, cited from earlier work
[2] = natural log of average kinetic rate constant
[3] = natural log of average rate constant

SMILES | NUDT7 % labeling (NUDT7) | OTUB2 % labeling (OTUB2) | ln(avg k) [1, 2] | ln(avg k) [1, 3]
O=C(CCl)Nc1ccc(F)cc1 [PCM-0103002, O=C(CCl)Nc1ccc(F)cc1] | 0% | 30% | -16.182 | -16.182
O=C(CCl)Nc1ccc(F)cc1F [PCM-0103004, O=C(CCl)Nc1ccc(F)cc1F] | 0% | 26% | -15.968 | -15.968
O=C(CCl)N1CCN(Cc2ccco2)CC1 [PCM-0103006, O=C(CCl)N1CCN(Cc2ccco2)CC1] | 0% | 0% | -15.615 | -15.615
O=C1CN(C(=O)CCl)CCN1 [PCM-0103008, O=C1CN(C(=O)CCl)CCN1] | 0% | 0% | -15.775 | -15.775
CC(=O)c1cc2c(cc1NC(=O)CCl)OCO2 [PCM-0103010, CC(=O)c1cc2c(cc1NC(=O)CCl)OCO2] | 14% | 0% | -17.333 | -17.333
O=C(CCl)NCC#Cc1cccc(C(F)(F)F)c1 [PCM-0103011, O=C(CCl)NCC#Cc1cccc(C(F)(F)F)c1] | 0% | 84% | -16.650 | -16.650
NS(=O)(=O)c1ccc(Cl)c(NC(=O)CCl)c1 [PCM-0103012, NS(=O)(=O)c1ccc(Cl)c(NC(=O)CCl)c1] | 0% | 10% | -15.947 | -15.947
Cc1ccccc1C(=O)NC1CCN(C(=O)CCl)CC1 [PCM-0103013, Cc1ccccc1C(=O)NC1CCN(C(=O)CCl)CC1] | 0% | 0% | -15.378 | -15.378
CC(C)C(=O)NNC(=O)CCl [PCM-0103014, CC(C)C(=O)NNC(=O)CCl] | 0% | 9% | -17.522 | -17.522
O=C(CCl)N1CCN(c2ccccc2[N+](=O)[O-])CC1 [PCM-0103016, O=C(CCl)N1CCN(c2ccccc2[N+](=O)[O-])CC1] | 27% | 9% | -15.523 | -15.523
Cc1ccc(CN(C)C(=O)CCl)cc1 [PCM-0103017, Cc1ccc(CN(C)C(=O)CCl)cc1] | 9% | 0% | -16.138 | -16.138
CS(=O)(=O)c1ccc(F)c(NC(=O)CCl)c1 [PCM-0103018, CS(=O)(=O)c1ccc(F)c(NC(=O)CCl)c1] | 0% | 16% | -15.950 | -15.950
CC1CCC(N(C)C(=O)CCl)CC1 (centres unmarked) [PCM-0103019, CC1CCC(N(C)C(=O)CCl)CC1] | 0% | 0% | -16.049 | -16.049
O=C(CCl)NCC1Cc2ccccc2O1 (centres unmarked) [PCM-0103020, O=C(CCl)NCC1Cc2ccccc2O1] | 0% | 0% | -17.072 | -17.072
O=C(CCl)N1CCN(c2ncc(Cl)cc2Cl)CC1 [PCM-0103022, O=C(CCl)N1CCN(c2ncc(Cl)cc2Cl)CC1] | 22% | 0% | -15.906 | -15.906
CC(C)N(C(=O)CCl)C(C)C [PCM-0103023, CC(C)N(C(=O)CCl)C(C)C] | 0% | 0% | -17.155 | -17.155
O=C(CCl)N1CCc2sccc2C1c1ccccc1 (centres unmarked) [PCM-0103024, O=C(CCl)N1CCc2sccc2C1c1ccccc1] | 69% | 0% | -15.442 | -15.442
CC1CCCCC1N(C)C(=O)CCl (centres unmarked) [PCM-0103026, CC1CCCCC1N(C)C(=O)CCl] | 12% | 0% | -15.777 | -15.777
COC(=O)c1ccc(C)c(NC(=O)CCl)c1 [PCM-0103027, COC(=O)c1ccc(C)c(NC(=O)CCl)c1] | 5% | 0% | -16.113 | -16.113
Cc1ccc(NC(=O)CCl)c(F)c1 [PCM-0103028, Cc1ccc(NC(=O)CCl)c(F)c1] | 0% | 14% | -16.314 | -16.314
CC(NC(=O)CCl)c1ccc2c(c1)OCO2 (centres unmarked) [PCM-0103030, CC(NC(=O)CCl)c1ccc2c(c1)OCO2] | 12% | 28% | -16.554 | -16.554
Cc1ccc2nc(NC(=O)CCl)sc2c1 [PCM-0103031, Cc1ccc2nc(NC(=O)CCl)sc2c1] | 88% | 18% | -15.473 | -15.473

SMILES | NUDT7 % labeling (NUDT7) | OTUB2 % labeling (OTUB2) | ln(avg k) [1, 2] | ln(avg k) [1, 3]
O=C(CCl)N1CCN(c2cccc(Cl)c2)CC1 [PCM-0103032, O=C(CCl)N1CCN(c2cccc(Cl)c2)CC1] | 22% | 21% | -15.657 | -15.657
N#Cc1cccc(NC(=O)CCl)c1 [PCM-0103033, N#Cc1cccc(NC(=O)CCl)c1] | 0% | 23% | -15.647 | -15.647
CC(NC(=O)CCl)c1ccc(F)cc1F (centres unmarked) [PCM-0103035, CC(NC(=O)CCl)c1ccc(F)cc1F] | 15% | 34% | -15.881 | -15.881
O=C(CCl)NC(=O)NCC(F)(F)F [PCM-0103037, O=C(CCl)NC(=O)NCC(F)(F)F] | 0% | 30% | -15.772 | -15.772
O=C(CCl)N1CC=C(c2ccccc2)CC1 [PCM-0103038, O=C(CCl)N1CC=C(c2ccccc2)CC1] | 0% | 9% | -16.846 | -16.846
O=C(CCl)Nc1ccc(F)cc1Cl [PCM-0103040, O=C(CCl)Nc1ccc(F)cc1Cl] | 0% | 0% | -16.348 | -16.348
COc1ccc(C)cc1NC(=O)CCl [PCM-0103043, COc1ccc(C)cc1NC(=O)CCl] | 6% | 27% | -16.699 | -16.699
O=C(CCl)NC1CCOCC1 [PCM-0103045, O=C(CCl)NC1CCOCC1] | 0% | 0% | -16.016 | -16.016
CC(C)(C)n1ncc2c1CCCC2NC(=O)CCl (centres unmarked) [PCM-0103046, CC(C)(C)n1ncc2c1CCCC2NC(=O)CCl] | 0% | 36% | -16.467 | -16.467
O=C(CCl)NCc1cccc(F)c1 [PCM-0103047, O=C(CCl)NCc1cccc(F)c1] | 0% | 43% | -16.636 | -16.636
COC(=O)c1cccc(NC(=O)CCl)c1 [PCM-0103048, COC(=O)c1cccc(NC(=O)CCl)c1] | 0% | 87% | -15.795 | -15.795
O=C(CCl)NCc1cc(Br)cs1 [PCM-0103050, O=C(CCl)NCc1cc(Br)cs1] | 13% | 84% | -16.422 | -16.422
CCC1c2ccsc2CCN1C(=O)CCl (centres unmarked) [PCM-0103051, CCC1c2ccsc2CCN1C(=O)CCl] | 30% | 0% | -15.594 | -15.594
Cc1nc(-c2ccc(C)c(NC(=O)CCl)c2)n[nH]1 [PCM-0103052, Cc1nc(-c2ccc(C)c(NC(=O)CCl)c2)n[nH]1] | 12% | 9% | -16.586 | -16.586
O=C(CCl)NC1CCN(C2CC2)CC1 [PCM-0103055, O=C(CCl)NC1CCN(C2CC2)CC1] | 0% | 0% | -16.125 | -16.125
Cc1cc(NC(=O)CCl)n(C(C)(C)C)n1 [PCM-0103057, Cc1cc(NC(=O)CCl)n(C(C)(C)C)n1] | 0% | 0% | -16.148 | -16.148
CC1(C)CCCN1C(=O)CCl [PCM-0103060, CC1(C)CCCN1C(=O)CCl] | 0% | 0% | -15.914 | -15.914
O=C(CCl)NNC(=O)C1CCC1 [PCM-0103061, O=C(CCl)NNC(=O)C1CCC1] | 28% | 14% | -15.962 | -15.962
O=C(CCl)NC1CCSC1=O (centres unmarked) [PCM-0103062, O=C(CCl)NC1CCSC1=O] | 0% | 0% | -17.032 | -17.032
O=C(CCl)N1CCN(Cc2ccccc2)CC1 [PCM-0103063, O=C(CCl)N1CCN(Cc2ccccc2)CC1] | 7% | 35% | -16.178 | -16.178
O=C(CCl)N(C1CCCC1)C1CC1 [PCM-0103064, O=C(CCl)N(C1CCCC1)C1CC1] | 0% | 0% | -16.942 | -16.942
O=C(CCl)NCC1CCC1 [PCM-0103065, O=C(CCl)NCC1CCC1] | 0% | 0% | -17.462 | -17.462
